Results on one compound are retold here after ChEMBL document CHEMBL4038308, “Lipophosphonoxins II: Design, Synthesis, and Properties of Novel Broad Spectrum Antibacterial Agents” (J Med Chem, 2017).

The subject of data set [1] is Mus musculus. Briefly: Toxicity in ICR mouse assessed as body weight loss up to 2000 mg/kg, po administered as single dose measured for 2 weeks. It counts as organism-based. As to conditions: in vivo, 336 h.
Data set [2] deals with TERT-RPE1. Briefly: Cytotoxicity against human RPE1 cells assessed as disruption of cell membrane integrity after 4 hrs by CytoTox-ONE-based assay. The following applies: tert-rpe1, 4 h.
Data set [3] deals with BJ. The experiment in a line: Cytotoxicity against human BJ cells assessed as reduction in cell viability after 48 hrs by ATPlite reagent based assay. For orientation: In ATP-based viability assays light output follows the ATP content of the culture.
Data set [4] relates to Bacillus subtilis. Briefly: Antibacterial activity against Bacillus subtilis assessed as inhibition of DNA synthesis at 2.5 mg/L after 50 mins by [3H]thymidine incorporation assay. It is filed as functional.
Data set [5] deals with Enterococcus faecalis. Briefly: Antibacterial activity against Enterococcus faecalis CCM 4224 after 24 hrs by microdilution method. It counts as functional. As to conditions: CCM 4224, 24 h. (In broth dilution the organism is exposed to a series of concentrations in liquid medium.)
Data set [6] has as its system Streptococcus agalactiae. Briefly: Antibacterial activity against Streptococcus agalactiae after 24 hrs by microdilution method. It counts as functional.
The subject of data set [7] is Bacillus subtilis. The experiment in a line: Antibacterial activity against Bacillus subtilis assessed as inhibition of plasma membrane lipids synthesis at 2.5 mg/L after 50 mins by [3H]-sodium acetate incorporation assay. It is filed as functional.
Data set [8] deals with Bacillus subtilis. The experiment in a line: Antibacterial activity against Bacillus subtilis assessed as rupture of cell envelope at 10 mg/L after 10 mins by scanning electron microscopic analysis. It is filed as functional.
Data set [9] in a line: Chemical stability of compound at 50 to 500 mg/L at pH 8.8 after 24 hrs at 37 degC by LC-MS analysis. It is filed as physicochemical. As to conditions: buffer, pH 8.8, 24 h.
For data set [10], the system named is Bacillus subtilis. The experiment in a line: Antibacterial activity against Bacillus subtilis assessed as inhibition of RNA synthesis at 2.5 mg/L after 50 mins by [3H]-uridine incorporation assay. It counts as functional.
Data set [11] relates to HepG2. The experiment in a line: Induction of apoptosis in human HepG2 cells assessed as caspase 3/7 activation up to 80 mg/L after 4 hrs by caspase-Glo 3/7 luminescent assay. It counts as cell-based. The following applies: hepg2, 4 h.
The test system of data set [12] is Acinetobacter baumannii. The experiment in a line: Antibacterial activity against Acinetobacter baumannii A3-08 after 24 hrs by microdilution method. It is filed as functional. The following applies: A3-08, 24 h.
A short description of data set [13]: Chemical stability of compound at 50 to 500 mg/L at pH 5 after 24 hrs at 37 degC by LC-MS analysis. The following applies: buffer, pH 5, 24 h. It counts as physicochemical.
In data set [14] the test system is Stenotrophomonas maltophilia. Briefly: Antibacterial activity against Stenotrophomonas maltophilia S2-23 after 24 hrs by microdilution method. It counts as functional. As to conditions: S2-23, 24 h.

By MIC is commonly meant the lowest concentration found to suppress growth. Lower therefore signals a more susceptible organism.

In brackets after ≈: the same amount, converted by molar mass. Activity calls are given as the source filed them. The calls are words filed in the database; no cut-off is given here.

With `CCCCCCCCCCCCCCOP(=O)(CCN(CCCN)CCCN)OC[C@H]1O[C@@H](n2ccc(=O)[nH]c2=O)[C@H](O)[C@@H]1O` (some centres undefined), the Activity result in data set [1] is listed as “Non-Toxic”; in data set [2], “Non-Toxic”; in data set [3], 30.7 mg/L; in [11], “Non-Toxic”. Moreover, the inhibition entry in data set [4], in [7] and in data set [10] was “inactive” throughout. The MIC in [5] was 25 µg/mL (≈ 37.8 µM); in data set [6] it was 3.13 µg/mL (≈ 4.73 µM); in [12], 12.5 µg/mL (≈ 18.9 µM); in data set [14], 12.5 µg/mL (≈ 18.9 µM). Also, the result in [8] was Active. The Stability result in [9] and in data set [13] was “Stable” in each case.
